From US4596824A, “p-Aminophenol with mucosecretolytic-fluidizing and antipyretic activity, a process for its preparation and pharmaceutical compositions thereof” (Camillo Corvi S.p.A., priority 1984, dated 1986)

Key:
in vivo = details: mouse, po
Source text: Method of studying LD50 in the mouse after a single oral administration.
Thereafter, the animals are fed again (Morini MIL fodder for mice).

[1] = tested on: bronchial secretion (mucoproduction); experiment: Bronchosecretagogue activity (mucoproduction) in the rabbit; assay type: in vivo, rabbit (male brown); details: oral, relative activity, d,l-trans-sobrerol taken equal to 100
Description: Method of mucoproduction in the rabbit according to Scuri R. et al Boll. Chem. Farm.
Male brown rabbits weighing 2.8-3.5 kg are used. To said animals, by a surgical operation under anaesthesia, a T shaped tracheal cannula is applied, as described in the above bibliographic reference.
To the cannula, a container (a polypropylene 2 ml test tube) is applied for periodical collection of the bronchial secretion. The study of mucoproduction, started at the fourth day after the operation, is divided into two 4 hour periods for collecting and measuring the mucus, and precisely from 8:30 to 12:30 (I), and from 12:30 to 16:30 (II).
The activity of each drug is tested by administering the same by oesophageal way (os) at the beginning of the II period and by evaluating the percent increase of mucoproduction (weight of the mucus as collected) in the II period as compared with the I period.

[2] = tested on: bronchial mucus of bronchitic rabbits; experiment: Fluidizing "in vivo" activity: viscosity of bronchial mucus of bronchitic rabbits; design: species or system rabbit (male, bronchitic by sulphuric acid aerosol); details: for Fluidizing "in vivo" activity of bronchial mucus: bronchitic rabbits, oral, relative activity, d,l-trans-sobrerol taken equal to 100
Description: The viscosity of the mucus as withdrawn is studied by using a Contraves RM16 microviscosimeter and it is recorded by a Rheomat 15 T-FC apparatus.

[3] = tested on: rectal temperature, dry yeast-induced fever; experiment: Antipyretic activity in the rat (dry yeast fever); assay type: in vivo, rat (albino Wistar female); details: for Antipyretic activity: rat, oral, temperature index over 4-25 h, relative activity, p-aminophenol taken equal to 100
Description: Method for studying the antipyretic activity in the rat.
Albino Wistar female rats, weighing 100-140g, are utilized. The animals having a rectal, basal temperature from 36° to 37° C. are selected.
The test substances are administered by oral way contemporaneously with the pyretic agent (dry yeast, suspended in water at the 20% concentration; volume administered 15 ml/kg subcutaneously) at groups of 5 animals per dose.
After 4,5,6,7 and 25 hours from the treatment, the rectal temperature of the animals is measured by an Ellab RM6 probe, connected to an Ellab mod. TE-3 thermometer.
The activity of the drugs is evaluated by utilizing a temperature index which is provided by the algebraic sum of the differences in the rectal temperature between the measure values at the various times and the basal value.

[4] = Pharmacokinetics: plasma levels in the rat after oral administration (HPLC); assay type: in vivo; details: Wistar rats, fasted, 400 mg/kg oral single administration, 0.5-6 h
Description: For this study, two groups of Wistar rats (170 280 g), fasting about 15 hours before treatment, are utilized. The animals were allowed to drink an aqueous 10% glucose solution. To the rats, the compound of formula I, by oral way (transoesophageal intubation) is administered at the dose of 400 mg/kg (a single administration) and at 0.5 h; 1 h; 1.5 h; 2 h; 3 h; 4 h; 6 h from administration, 5 rats/time are sacrificed. The blood, as collected into test tubes containing sodium heparin, is centrifuged and the plasma so obtained is utilized for quantitative analysis of the compound of formula (I) of the invention by means of high pressure liquid chromatography (HPLC) with an U.V. detector.

## CC1=CC[C@H](C(C)(C)O)C[C@H]1OC(=O)CCC(=O)Nc1ccc(O)cc1 (relative stereo) [CO/1499, 5-[3-N-[(4-hydroxyphenyl)carboxamido]-1-oxo-propxy]-α,α-4-trimethyl-3-cyclohexene-1-methanol]
In vivo
  LD50 at 336 h: 2070 mg/kg
[1]
  Bronchosecretagogue activity: 131
[2]
  Fluidizing "in vivo" activity of bronchial mucus: 120
[2]; statement in words, versus activity ascribed to the d,l-trans-sobrerol moiety
  mucosecretolytic-fluidizing activity: potency increase
[3]
  Antipyretic activity: 127
[3]; statement in words
  antipyretic activity compared with paracetamol or any drug of the same therapeutical class: equivalent of a dose of either paracetamol or any drug of the same therapeutical class
[4]
  absorption (course of the plasmatic levels): quick and good absorption

## CC1=CC[C@H](C(C)(C)O)C[C@H]1O (relative stereo) [d,l-trans-sobrerol]
In vivo
  LD50 at 336 h: 2340 mg/kg
[1]
  Bronchosecretagogue activity: 100
[2]
  Fluidizing "in vivo" activity of bronchial mucus: 100
[3]
  Antipyretic activity: 0

## Nc1ccc(O)cc1 [p-aminophenol]
[1]
  Bronchosecretagogue activity: 0
[2]
  Fluidizing "in vivo" activity of bronchial mucus: 0
[3]
  Antipyretic activity: 100
